The values that follow come from US20250241996A1, “COMBINATORIAL, AND ROTATIONAL COMBINATORIAL THERAPIES” (Starrock Pharma Inc., priority 2022, published 2025).

The nature of data set [1]: Side effects and tolerability during the combinatorial weight loss regimen (Example 2). The procedure:
Subjects were seen once weekly for the first 4 weeks, and then once every two weeks, for six visits, for a total of 10 visits over 16 weeks. Vital signs and side effects were assessed at each visit.
Subjects were administered or self-administered the medications in the protocol by the appropriate route (i.e., subcutaneous injection or oral tablet/capsule) for […]. Subjects initially were administered a combination of: 1) a GLP-1 agonist (sold under trademarks Trulicity®, B-cise®, Ozempic®, and Victoza®), 2) Phentermine, 3) Liothyronine, 4) topiramate (sold under the trademark Topamax® carbonic anhydrase inhibitor), and 5) Sermorelin. The starting dosages are listed below in Table 17. The dosages were adjusted throughout the treatment period based on the subject response (i.e., weight loss), tolerability, volume of distribution, subject weight, and at the discretion of the treating physician. For example, the dosage of the GLP-1 agonists Trulicity® and Ozempic® was adjusted depending on the response to the medications. The dosage of the Bydureon BCcise® GLP-1 agonist was not adjusted since it is only produced in a 2 mg injectable dose. Phentermine was increased depending on subject response, to, for example, one 37.5 mg tablet in the morning and one-half tablet ([…]) at 2 p.m. […] If no progression was noted on the initial medications listed above, then the following medications were added to the protocol: Acarbose, Januvia® dipeptidyl peptidase-4 (DPP-4) inhibitor, Invokana® sodium-glucose co-transporter 2 (SGLT2) inhibitor, and Farxiga® (dapagliflozin) in the dosages listed in Table 17, below. For example, if weight loss progress was slow and a subject was consuming large amounts of carbohydrate-rich foods, the alpha-glucosidase inhibitor, Acarbose, was added to the regimen. […] This was added in addition to medications i-iv and ix, below. The regimen provided a minimum of four medications, and more medications were added and/or the dosages were modified as required in subsequent visits.
In other examples, the regimen began with administration of medications i-iv and ix and other medications were added; additional medications were administered at week 2 or week 7, for example, if the subject was not responding and needed an extra pharmacological ‘push.’
As noted above, the medication dosages were adjusted throughout the treatment period as needed, and as agreed to between the treating physician and the subject. […] For larger subjects (i.e., starting weight over 300 pounds) who were losing less than 6 pounds per week, medication dosages were increased or additional medications were added to the regimen. The hierarchy of decision making included 1) increase the dosage of the medications to the maximum allowable dosage or to the level of tolerability of the medication; and then 2) add a fifth or sixth medication, as needed to increase weight loss.

For data set [2] the following is noted: cited from earlier work.
For data set [3] the following is noted: cited from earlier work. This is another data set of the same source.
For data set [4] the following is noted: cited from earlier work. This is another data set of the same source.
For data set [5] the following is noted: cited from earlier work. This is another data set of the same source.
For data set [6] the following is noted: after 36 weeks, cited from earlier work.

Values joined by “and” are separate entries in the source; they are usually repeats but may differ in a detail not shown here. Equal entries are not always repeated. Where two headings read alike, the source gives them in different places.

In the case of `C[C@H]1O[C@H](O[C@H]2[C@H](O)[C@@H](O)[C@@H](O[C@H]3[C@H](O)[C@@H](O)C(O)O[C@@H]3CO)O[C@@H]2CO)[C@H](O)[C@@H](O)[C@@H]1N[C@H]1C=C(CO)[C@@H](O)[C@H](O)[C@H]1O` (some centres unmarked) [Acarbose], the “Side effect(s)” value in data set [1] (subject 4, dosages of Table 24) is listed as “Mild”.
On to `Fc1ccccc1Nc1nc2nonc2nc1Nc1ccccc1F` [BAM15, (2-fluorophenyl){6-[(2-fluorophenyl)amino](1,2,5-oxadiazolo [3,4e]pyrazin-5-yl)}amine], for which the “diet-induced obesity and insulin resistance” value in data set [2] (orally administered, mice) was “reverses diet-induced obesity and insulin resistance in mice”.
As for `CC(NC(C)(C)C)C(=O)c1cccc(Cl)c1` (centres unmarked) [Bupropion], the “Side effect(s)” value in data set [1] (in vivo) is given as “None”.
As for `O=[N+]([O-])c1ccc(O)c([N+](=O)[O-])c1` [DNP, 2,4-dinitrophenol], the toxicity entry in data set [3] (tested clinically) is on record as “limited utility owing to toxicity”.
Take `CCN(CC)C(C)C(=O)c1ccccc1` (centres unmarked) [Diethylproprion]: the “Side effect(s)” value in data set [1] (subject 2, dosages of Table 20) was “None”.
With `C[C@H]1CNCCc2ccc(Cl)cc21` [Locasarin], the Weight loss in data set [4] (Duration 56 weeks) was 5.8%.
Consider `O=C1CC[C@@]2(O)[C@H]3Cc4ccc(O)c5c4[C@@]2(CCN3CC2CC2)[C@H]1O5` [Naltrexone], for which, in data set [3] (human, in vivo), the “weight loss in monotherapy” value is reported as “does not cause weight loss in monotherapy”.
With `CCCCCCCCCCC[C@@H](C[C@@H]1OC(=O)[C@H]1CCCCCC)OC(=O)[C@H](CC(C)C)NC=O` [Orlistat], the placebo-normalized weight loss in data set [3] (human, in vivo) is roughly 2.5%. Besides, in data set [4] (Duration 56 weeks), the “>%5 (percent of subjects who lost greater than 5%)” value is on record as 48%; the “>%10 (percent of subjects who lost greater than 10%)” value is given as 17.9%; the Weight loss was 6.2% and 4% and 8.5%; the “participants with 5% and more weight loss” value is recorded as 48%. Also, the “participants with 10% and more weight loss” value in data set [4] (Duration 56 weeks) is given as 17.9%.
As to `C[C@H]1[C@H](c2ccccc2)OCCN1C` [Phendimetrazine], the “Side effect(s)” value in data set [1] (subject 5, dosages of Table 26) is recorded as “None”.
Regarding `CC(C)(N)Cc1ccccc1` [Phentermine], the “Side effect(s)” value was “Dry mouth” in data set [1] (subject 1, dosages of Table 18); “Dry mouth” in data set [1] (subject 2, dosages of Table 20); “None and Dry mouth” in data set [1] (subject 3, dosages of Table 22); “None” in data set [1] (subject 4, dosages of Table 24); “None” in data set [1] (subject 5, dosages of Table 26). For the same molecule, the “>%5 (percent of subjects who lost greater than 5%)” value in data set [4] (Duration 12 weeks) is listed as 95%. In addition, the “>%10 (percent of subjects who lost greater than 10%)” value in data set [4] (Duration 12 weeks) was 62.5%. Besides, the Weight loss was 8% and 7% in data set [4] (Duration 12 weeks); 8% and 7% in data set [4] (Duration 12 weeks, listed as phentermine); 9% in data set [4] (Duration 20 weeks); 6% in data set [4] (Duration 28 weeks). Further, in data set [4] (Duration 12 weeks), the “participants with 5% and more weight loss” value is reported as 95%. Further, the “participants with 10% and more weight loss” value in data set [4] (Duration 12 weeks) is recorded as 62.5%.
Turning to `Cc1c(C(=O)NN2CCCCC2)nn(-c2ccc(Cl)cc2Cl)c1-c1ccc(Cl)cc1` [Rimonabant], in data set [3] (human, in vivo), the adverse psychiatric effects entry was “discontinued in 2009 due to serious adverse psychiatric effects” and the placebo-subtracted weight loss is 2.6 to 6.3 kg.
On to `CCOC[C@@H]1[C@@H](c2ccc(Cl)c(Cl)c2)C[C@@H]2CC[C@H]1N2C` [Tesofensine], for which, in data set [3] (phase II study, dose-dependent), the “decrease of body weight” value is 4.4-10.4%.
In the case of `CC1(C)O[C@@H]2[C@@H](CO[C@@]3(COS(N)(=O)=O)OC(C)(C)O[C@@H]23)O1` [Topiramate], in data set [1] (in vivo), the “tolerability within the regimen” value is “the least tolerated, and was discontinued in some cases”.
Consider `CC[C@H](C)[C@H](NC(=O)[C@H](Cc1ccccc1)NC(=O)[C@H](CCC(=O)O)NC(=O)[C@H](CCCCNC(=O)COCCOCCNC(=O)COCCOCCNC(=O)CC[C@H](NC(=O)CCCCCCCCCCCCCCCCC(=O)O)C(=O)O)NC(=O)[C@H](C)NC(=O)[C@H](C)NC(=O)[C@H](CCC(N)=O)NC(=O)CNC(=O)[C@H](CCC(=O)O)NC(=O)[C@H](CC(C)C)NC(=O)[C@H](Cc1ccc(O)cc1)NC(=O)[C@H](CO)NC(=O)[C@H](CO)NC(=O)[C@@H](NC(=O)[C@H](CC(=O)O)NC(=O)[C@H](CO)NC(=O)[C@@H](NC(=O)[C@H](Cc1ccccc1)NC(=O)[C@@H](NC(=O)CNC(=O)[C@H](CCC(=O)O)NC(=O)C(C)(C)NC(=O)[C@@H](N)Cc1cnc[nH]1)[C@@H](C)O)[C@@H](C)O)C(C)C)C(=O)N[C@@H](C)C(=O)N[C@@H](Cc1c[nH]c2ccccc12)C(=O)N[C@@H](CC(C)C)C(=O)N[C@H](C(=O)N[C@@H](CCCNC(=N)N)C(=O)NCC(=O)N[C@@H](CCCNC(=N)N)C(=O)NCC(=O)O)C(C)C` [semaglutide], for which the “Side effect(s)” value in data set [1] (in vivo) is “constipation”.
Still for that read-out and setting: the value for `CC[C@H](C)[C@H](NC(=O)[C@H](C)NC(=O)[C@H](CC(=O)O)NC(=O)[C@H](C)NC(=O)[C@@H](N)Cc1ccc(O)cc1)C(=O)N[C@@H](Cc1ccccc1)C(=O)N[C@H](C(=O)N[C@@H](CC(N)=O)C(=O)N[C@@H](CO)C(=O)N[C@@H](Cc1ccc(O)cc1)C(=O)N[C@@H](CCCNC(=N)N)C(=O)N[C@@H](CCCCN)C(=O)N[C@H](C(=O)N[C@@H](CC(C)C)C(=O)NCC(=O)N[C@@H](CCC(N)=O)C(=O)N[C@@H](CC(C)C)C(=O)N[C@@H](CO)C(=O)N[C@@H](C)C(=O)N[C@@H](CCCNC(=N)N)C(=O)N[C@@H](CCCCN)C(=O)N[C@@H](CC(C)C)C(=O)N[C@@H](CC(C)C)C(=O)N[C@@H](CCC(N)=O)C(=O)N[C@@H](CC(=O)O)C(=O)N[C@H](C(=O)N[C@@H](CCSC)C(=O)N[C@@H](CO)C(=O)N[C@@H](CCCNC(=N)N)C(N)=O)[C@@H](C)CC)C(C)C)[C@@H](C)O` [sermorelin] was “None”.
With “Novo Nordisk Wegovy ™ semaglutide weight loss medication”, the “12 weeks % weight change” value is listed as −6% in data set [5] (Wegovy Study 1, baseline mean body weight 105.4 kg); −4.5% in data set [5] (Wegovy Study 2, baseline mean body weight 99.9 kg); −7% in data set [5] (Wegovy Study 3, baseline mean body weight 106.9 kg); −5.5% in data set [5] (Wegovy Study 4, baseline mean body weight 107.2 kg). The “36 weeks % weight change” value in data set [5] (Wegovy Study 1) is −12%; in data set [5] (Wegovy Study 2), −9%; in data set [5] (Wegovy Study 3) it was −13%; in data set [5] (Wegovy Study 4) it was −12%.
Consider dulaglutide, for which the average weight lost in data set [6] (1.5 mg once weekly with ≥1500 mg/day metformin) is reported as 6.6 pounds; in data set [6] (3.0 mg once weekly with ≥1500 mg/day metformin) it was 8.4 pounds; in data set [6] (4.5 mg once weekly with ≥1500 mg/day metformin), 1.1 pounds. For the same molecule, in data set [1] (in vivo), the “Side effect(s)” value is recorded as “constipation”.
As for “leptin: 167 amino acid hormone (SEQ ID NO:3)”, in data set [3] (obese individuals), the “lowering of body weight by supplementation” value was “has not been shown to be effective to lower body weight in obese individuals”.

B1: recombinant GDF15: Macrophage inhibitory cytokine 1 (SEQ ID NO:33) (protein, listed as Homo sapiens)
chain: MPGQELRTVNGSQMLLVLLVLSWLPHGGALSLAEASRASFPGPSELHSEDSRFRELRKRYEDLLTRLRANQSWEDSNTDLVPAPAVRILTPEVRLGSGGHLHLRISRAALPEGLPEASRLHRALFRLSPTASRSWDVTRPLRRQLSLARPQAPALHLRLSPPPSQSDQLLAESSSARPQLELHLRPQAARGRRRARARNGDHCPLGPGRCCRLHTVRASLEDLGWADWVLSPREVQVTMCIGACPSQFRAANMHAQIKTSLHRLKPDTVPAPCCVPASYNPMVLIQKTDTGVSLQTYDDLLAKDCHCI
modifications: Macrophage inhibitory cytokine 1 (MIC1 or GDF15)
With B1, the body weight result in data set [2] (exogenous administration, diet-induced obese mice and non-human primates) is “decreases body weight in diet-induced obese mice and non-human primates”.
